Read-outs that look alike come from different tables or passages of the source.
Legend:
human CB1 = human CB1 (Homo sapiens, UniProt P21554); assay: Human CB1 cannabinoid receptor radioligand binding assay ([3H]-CP 55,940 displacement, HEK-293 membranes)
From the text: (§1) cDNA expression clones for human CB1 (hCB1, Genbank Accession No. AY225225) and human CB2 (hCB2, Genbank Accession No. AY242132) expressed in vector pcDNA3.1+ were purchased from UMR cDNA Resource Center, Rolla, Mo. (Clone ID CNR01L000 for hCB1; CNR0200000 for hCB2).
(§2) Stable, HEK-293-derived cell lines that recombinantly express hCB1 or hCB2 were established. In brief, the clone hCB1 (CNR1L) or hCB2 (CNR2) was transfected into human embryonic kidney cells (HEK-293) using Lipofectamine 2000 (Gibco, Cat#11668-019) according to the manufacturer's protocol. Transfected clones were isolated by single colony purification and clones were screened for receptor expression using a whole cell, 3H-CP 55,940 radioligand binding assay. HEK-293 stable cells were maintained in Dulbecco's modified Eagles medium (DMEM) containing 10% fetal bovine serum, 2 mM L-glutamine and 0.5 mg/mL G-418.
(§3) Membranes were isolated from transfected cells as follows. Monolayers of cultured cells were washed twice with phosphate-buffered saline (PBS). Cells were scraped into 20 mM HEPES, pH 7.4, 10 mM EDTA containing complete cocktail protease inhibitors (Roche, Catalog #11 697 498 001), and were homogenized by an electric-powered mechanical probe homogenizer (Omni GLH; probe G7-195S) for 40 seconds at 7000 rpm. Homogenates were centrifuged 10 minutes at 1000×g at 4° C. The supernatant was collected and was centrifuged for 1 hour at 40,000×g. The supernatant was then decanted and the resulting pellet was re-suspended in 20 mM HEPES, pH 7.4, 5 mM MgCl2, 1 mM EDTA, 10% sucrose with complete cocktail protease inhibitors. Protein concentration of membrane suspensions were measured by Bradford Protein Assay using bovine serum albumin as the standard (BioRad catalog #500-0006). Protein concentrations of membrane suspensions were adjusted with the final buffer in the range of 5 to 10 mg/mL and were stored at −80° C. until further use.
(§4) Radioligand binding assays were performed by incubating membranes (2-10 μg protein) prepared from HEK-293 cells expressing recombinant human cannabinoid receptors, CB1 or CB2, at room temperature with 0.5 nM cannabinoid receptor agonist, [3H]-CP 55,940 (Perkin Elmer, catalog #NET1051) in 0.2 mL of binding buffer (50 mM Tris-HCl, pH 7.5, 5 mM MgCl2, 2.5 mM EDTA) and 0.1% fatty acid free bovine serum albumin (Sigma Cat. #A0821) for 90 minutes. A rapid filtration technique using Millipore FB filter plates (Catalog #MADVNOB) and filtration apparatus (Millipore system Catalog MAVM0960R) with vacuum aspiration was used to harvest and rinse labeled membranes (8 times with 0.2 mL of chilled binding buffer). The radioactivity bound to the filters was counted with 0.05 mL of liquid scintillant (UltraGold MV, PerkinElmer catalog #6013159) in a scintillation counter (Perkin Elmer Microbeta instrument). Nonspecific binding was determined in the presence of unlabeled 1 μM CP 55,940 (Sigma Aldrich, catalog #C1112). Binding data were analyzed using GraphPad Prism (GraphPad Software, Inc. San Diego, Calif.).

human CB2 [1] = biological target: T1, human CB2 (Homo sapiens, UniProt P34972); assay: Human CB2 cannabinoid receptor radioligand binding assay ([3H]-CP 55,940 displacement, HEK-293 membranes)
From the text: as §1, §2, §3, §4

human CB2 [2] = biological target: T1, human CB2; assay: 35S GTPγS binding functional assay, agonist mode, hCB2 HEK-293 membranes; type: biochemical
Description: Functional assays which monitor G-protein coupled receptor or downstream cellular responses can be used to characterize potential CB1 receptor and/or CB2 receptor agonist or antagonist activities. Direct activation (or inhibition of activation) can be monitored using a GTPγS assay (membrane-based assay) or cAMP assay (whole cell-based assay).
^35S GTPγS binding assays were performed by incubating recombinant cell membranes prepared above (5 μg) in the presence of scintillation proximity assay beads (SPA beads, Catalog #RPNQ0252 GE Healthcare, Buckinghamshire, England) in GTPγS binding buffer [50 mM HEPES (pH 7.4), 100 mM NaCl, 5 mM MgCl2, 0.001% saponin (Sigma catalog #S4521)] supplemented with 20 uM GDP (Sigma catalog #G7127) in the presence or absence of test compound. The reaction was carried out in 96-well microplates with 0.1 nM [^35S]GTPγS (specific activity=1250 Ci/mmol; Perkin Elmer catalog #NEG030X250UC) in a final volume of 100 uL. After a 90 min room temperature incubation, the reaction was analyzed using a scintillation counter (Perkin Elmer Microbeta instrument). Binding data were analyzed using GraphPad Prism.

mouse = assay: Phenylbenzoquinone-induced (PBQ) writhing model; conditions: dose 30 (unit not given), route IP, P < 0.001
[3] = read-out: hCB1 IC50 (CP displ, nM, HEK), CP 55,940 displacement, HEK-293 membranes
[4] = read-out: hCB2 IC50 (CP displ, nM, HEK), CP 55,940 displacement, HEK-293 membranes
[5] = GTPγS agonist mode, HEK-293 membranes, read-out: hCB2 EC50 (GTPyS ag, nM, HEK)
[6] = CP 55,940 displacement, HEK-293 membranes, read-out: hCB1 IC50 (CP displ, nM, HEK)
[7] = CP 55,940 displacement, HEK-293 membranes, read-out: hCB2 IC50 (CP displ, nM, HEK)
[8] = read-out: hCB2 EC50 (GTPyS ag, nM, HEK), GTPγS agonist mode, HEK-293 membranes

T1 sequence (P34972 whole entry): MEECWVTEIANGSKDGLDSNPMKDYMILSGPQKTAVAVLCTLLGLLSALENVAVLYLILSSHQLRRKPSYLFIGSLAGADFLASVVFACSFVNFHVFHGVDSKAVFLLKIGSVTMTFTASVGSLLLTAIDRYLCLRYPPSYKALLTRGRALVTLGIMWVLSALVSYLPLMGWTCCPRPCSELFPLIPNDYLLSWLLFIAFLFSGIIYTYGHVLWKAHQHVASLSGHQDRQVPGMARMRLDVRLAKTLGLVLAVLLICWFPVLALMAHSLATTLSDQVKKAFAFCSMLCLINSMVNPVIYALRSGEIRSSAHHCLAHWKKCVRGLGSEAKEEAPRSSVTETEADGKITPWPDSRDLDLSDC
Chain of human CB1 (P21554 whole entry): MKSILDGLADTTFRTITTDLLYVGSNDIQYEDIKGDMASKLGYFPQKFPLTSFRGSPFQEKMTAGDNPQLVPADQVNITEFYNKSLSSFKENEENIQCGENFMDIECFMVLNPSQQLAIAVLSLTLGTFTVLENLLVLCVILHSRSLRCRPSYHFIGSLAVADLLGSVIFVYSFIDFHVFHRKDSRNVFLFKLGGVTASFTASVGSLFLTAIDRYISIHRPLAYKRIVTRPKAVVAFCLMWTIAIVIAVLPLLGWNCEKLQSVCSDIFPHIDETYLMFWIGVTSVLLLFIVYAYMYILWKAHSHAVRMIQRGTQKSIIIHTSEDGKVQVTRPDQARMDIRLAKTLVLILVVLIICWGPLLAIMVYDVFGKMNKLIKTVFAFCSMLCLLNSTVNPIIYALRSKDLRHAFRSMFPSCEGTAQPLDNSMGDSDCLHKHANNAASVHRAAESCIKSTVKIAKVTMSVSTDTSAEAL

## Cc1c(C(=O)c2cccc(Cl)c2Cl)c2ccsc2n1CCN1CCOCC1 [Compound I-1, (2,3-dichlorophenyl)(5-methyl-6-(2-morpholinoethyl)-6H-thieno[2,3-b]pyrrol-4-yl)methanone]
Human CB1
  IC50: 1000 to 10000 nM
Human CB2 [1]
  IC50: < 100 nM
Human CB2 [2]
  EC50: < 100 nM
mouse
  Number of Writhes: 1.5 ± 0.79

## CCCn1c(C)c(C(=O)c2cccc(Cl)c2Cl)c2ccsc21 [Compound I-2]
Human CB1; [3]
  IC50: > 10000 nM
Human CB2 [1]; [4]
  IC50: 100 to 1000 nM
Human CB2 [2]; [5]
  EC50: < 100 nM

## Cc1c(C(=O)c2cccc(Cl)c2Cl)c2scnc2n1CCN1CCOCC1 [Compound I-3]
Human CB1; [3]
  IC50: 1000 to 10000 nM
Human CB2 [1]; [4]
  IC50: < 100 nM
Human CB2 [2]; [5]
  EC50: < 100 nM

## CCCn1c(C)c(C(=O)c2cccc(Cl)c2Cl)c2scnc21 [Compound I-4]
Human CB1; [3]
  IC50: > 10000 nM
Human CB2 [1]; [4]
  IC50: 100 to 1000 nM
Human CB2 [2]; [5]
  EC50: < 100 nM

## Cc1c(C(=O)c2cccc(Cl)c2Cl)c2sccc2n1CCN1CCOCC1 [Compound I-5]
Human CB1; [3]
  IC50: 1000 to 10000 nM
Human CB2 [1]; [4]
  IC50: < 100 nM
Human CB2 [2]; [5]
  EC50: < 100 nM

## CCCn1c(C)c(C(=O)c2ccccc2)c2ccsc21 [Compound I-7]
Human CB1; [6]
  IC50: > 10000 nM
Human CB2 [1]; [7]
  IC50: > 10000 nM

## Cc1c(C(=O)C2C(C)(C)C2(C)C)c2ccsc2n1CCN1CCOCC1 [Compound I-8]
Human CB1; [3]
  IC50: 1000 to 10000 nM
Human CB2 [1]; [4]
  IC50: 100 to 1000 nM
Human CB2 [2]; [5]
  EC50: < 100 nM

## Cc1c(C(=O)c2cccc(Cl)c2Cl)c2ccsc2n1CCC1CCOCC1 [Compound I-9]
Human CB1; [3]
  IC50: 100 to 1000 nM
Human CB2 [1]; [4]
  IC50: < 100 nM
Human CB2 [2]; [5]
  EC50: < 100 nM

## COCCn1c(C)c(C(=O)c2cccc(Cl)c2Cl)c2ccsc21 [Compound I-10]
Human CB1; [3]
  IC50: > 10000 nM
Human CB2 [1]; [4]
  IC50: 100 to 1000 nM
Human CB2 [2]; [5]
  EC50: 100 to 1000 nM

## Cc1c(C(=O)c2cccc(F)c2F)c2ccsc2n1CCN1CCOCC1 [Compound I-11]
Human CB1; [3]
  IC50: > 10000 nM
Human CB2 [1]; [4]
  IC50: 1000 to 10000 nM
Human CB2 [2]; [5]
  EC50: 100 to 1000 nM

## Cc1c(C(=O)c2cccc(Cl)c2)c2ccsc2n1CCN1CCOCC1 [Compound I-12]
Human CB1; [3]
  IC50: 1000 to 10000 nM
Human CB2 [1]; [4]
  IC50: 1000 to 10000 nM

## Cc1c(C(=O)c2cccc3c2OCC3)c2ccsc2n1CCN1CCOCC1 [Compound I-14]
Human CB1; [3]
  IC50: 1000 to 10000 nM
Human CB2 [1]; [4]
  IC50: 100 to 1000 nM
Human CB2 [2]; [5]
  EC50: 100 to 1000 nM

## Cc1c(C(=O)c2ccc(Cl)cc2Cl)c2ccsc2n1CCN1CCOCC1 [Compound I-15]
Human CB1; [3]
  IC50: > 10000 nM
Human CB2 [1]; [4]
  IC50: 100 to 1000 nM
Human CB2 [2]; [5]
  EC50: 100 to 1000 nM

## Cc1c(C(=O)c2cccc(Cl)c2Cl)c2ccsc2n1CCN1CCCCC1 [Compound I-17]
Human CB1; [3]
  IC50: 1000 to 10000 nM
Human CB2 [1]; [4]
  IC50: < 100 nM
Human CB2 [2]; [5]
  EC50: < 100 nM

## Cc1c(C(=O)c2cccc(Cl)c2Cl)c2ccsc2n1CC(=O)N1CCOCC1 [Compound I-18]
Human CB1; [3]
  IC50: > 10000 nM
Human CB2 [1]; [4]
  IC50: 100 to 1000 nM
Human CB2 [2]; [8]
  EC50: 100 to 1000 nM

## Cc1c(C(=O)c2cccc(Cl)c2Cl)c2cc(Cl)sc2n1CCN1CCOCC1 [Compound I-19]
Human CB1; [3]
  IC50: 1000 to 10000 nM
Human CB2 [1]; [4]
  IC50: < 100 nM
Human CB2 [2]; [5]
  EC50: 100 to 1000 nM

## Cc1c(C(=O)c2cccc(Cl)c2Cl)c2ccsc2n1CC1CCCCN1C (centres unmarked) [Compound I-20]
Human CB1; [3]
  IC50: < 100 nM
Human CB2 [1]; [4]
  IC50: < 100 nM
Human CB2 [2]; [5]
  EC50: < 100 nM

## CCS(=O)(=O)n1c(C)c(C(=O)c2cccc(Cl)c2Cl)c2ccsc21 [Compound I-21]
Human CB1; [6]
  IC50: > 10000 nM
Human CB2 [1]; [7]
  IC50: 1000 to 10000 nM

## Cc1c(C(=O)c2cccc(Cl)c2Cl)c2ccsc2n1CCC1CCN(C(=O)OC(C)(C)C)CC1 [Compound I-22]
Human CB1; [6]
  IC50: > 10000 nM
Human CB2 [1]; [7]
  IC50: > 10000 nM

## Cc1c(C(=O)c2cccc(Cl)c2Cl)c2ccsc2n1CC1CCOCC1 [Compound I-23]
Human CB1; [3]
  IC50: 1000 to 10000 nM
Human CB2 [1]; [4]
  IC50: < 100 nM
Human CB2 [2]; [5]
  EC50: < 100 nM

## Cc1c(C(=O)C2CCCCC2)c2ccsc2n1CCN1CCOCC1 [Compound I-24]
Human CB1; [3]
  IC50: 1000 to 10000 nM
Human CB2 [1]; [4]
  IC50: 100 to 1000 nM
Human CB2 [2]; [5]
  EC50: 100 to 1000 nM

## Cc1c(C(=O)c2cccc(Cl)c2Cl)c2ccsc2n1CCC1CCN(C)CC1 [Compound I-25]
Human CB1; [3]
  IC50: > 10000 nM
Human CB2 [1]; [4]
  IC50: > 10000 nM

## CCCOc1ccccc1C(=O)c1c(C)n(CCN2CCOCC2)c2sccc12 [Compound I-27]
Human CB1; [3]
  IC50: > 10000 nM
Human CB2 [1]; [4]
  IC50: 1000 to 10000 nM

## Cc1c(C(=O)c2cccnc2Cl)c2ccsc2n1CCN1CCOCC1 [Compound I-28]
Human CB1; [3]
  IC50: > 10000 nM
Human CB2 [1]; [4]
  IC50: 1000 to 10000 nM

## CCn1c(C)c(C(=O)c2cccc(Cl)c2Cl)c2ccsc21 [Compound I-30]
Human CB1; [3]
  IC50: > 10000 nM
Human CB2 [1]; [4]
  IC50: 1000 to 10000 nM
Human CB2 [2]; [8]
  EC50: 100 to 1000 nM

## Cc1c(C(=O)c2ccccc2)c2ccsc2n1CCN1CCOCC1 [Compound I-31]
Human CB1; [3]
  IC50: > 10000 nM
Human CB2 [1]; [4]
  IC50: > 10000 nM

Reference: patent US20130196960A1, “Cannabinoid Receptor Agonists” (Ironwood Pharmaceuticals, Inc., priority 2010, published 2013)
